Where “and” joins values, the source holds several entries; their conditions need not be identical. Equal values may be shown once. Entries after “also recorded” stand apart in the source; their conditions may differ.
Key:
cardiac INa = cardiac INa (Homo sapiens, UniProt Q14524); details: cited from earlier work
L-type calcium current = L-type calcium current (Homo sapiens, UniProt Q13936); details: cited from earlier work
[1] = tested on: inward rectifier K+ current; details: cited from earlier work
rat ventricular myocytes = assay: Action potentials in isolated rat ventricular myocytes, whole-cell current clamp
Protocol: Ventricular myocytes were isolated from the hearts of 3-week or 6 to 7- week-old Sprague-Dawley rats of either sex. Rats were anaesthetized with pentobarbitone sodium (i.p. 200 mg kg^−1). Isolated hearts were mounted on a Langendorff perfusion apparatus, washed at 37° C. for 5 min with a modified Tyrode solution containing (mM): 143 NaCl, 5.4 KCl, 5 HEPES, 0.5 MgCl2, 0.5 NaH2PO4, 1.8 CaCl2, 10 glucose, adjusted pH to 7.4 with NaOH, and then perfused with Ca^2+-free Tyrode solution for 5 min. After the hearts had stopped beating, Ca^2+-free Tyrode solution containing collagenase (0.5 mg ml^−1, Type II, Worthington) was perfused for 30 min. Finally, this enzyme containing solution was washed out for 5 min with a high K^+, low Cl^−KB solution containing (in mM): 70 K-glutamate, 55 KCl, 10 HEPES, 3 MgCl2, 20 taurine, 20 KH2PO4, 0.5 K-EGTA adjusted pH to 7.3 with KOH. A portion of the left ventricle was then dissected out and gently stirred with a forceps in KB solution. The isolated ventricular myocytes were kept in KB solution at 5° C. before use.
Patch pipettes (1˜2 MΩ when filled with experimental solutions) were pulled from borosilicate glass capillaries (Harvard Apparatus Ltd, UK). Conventional whole-cell patch clamp technique was used to record membrane current or voltage from single ventricular myocytes. In current-clamp mode, action potentials were evoked by a brief supra-threshold current pulse. In voltage clamp mode, access resistance was monitored throughout the experiment, and data were accepted only when the access resistance was kept below 6 MΩ. Filtered signals (10 KHz) from a patch clamp amplifier (Biologic RK 300, France), were fed into AD/DA converter (PCI-MIO-16E-4, National Instrument, USA), digitized at 20 KHz, and stored in PC for later analysis. The flow rate of the perfusion solution was 0.5˜1 ml min^−1. All electrophysiological experiments were performed at room temperature (23˜25° C.). The statistical results in the text and in figures were presented as means ±S.E.M. (n=number of cells studied). Statistical significance was accepted for p value <0.05.
APs were evoked by applying 50-70 pA depolarising current pulses (5 ms in duration) every 500 ms through a patch pipette in current clamp mode with a whole-cell configuration. The effects of dmLSB on APD were quantified in terms of APD90; defined as the APD measured at the voltage at which repolarization process is 90% complete. Time-profile of the change in APD90 values averaging from five sequential APs selected every 12 seconds was plotted in FIG. 2A as a function of whole-cell recording time.
Experimental methods for electrophysiology (recording currents and action potentials) are the same as described above for dmLSB.

[2] = target: L-type Ca2+ current (ICa,L) (Rattus norvegicus, UniProt P22002); type: cell-based; details: 10 μM dmLSB
Na+ current (INa) = Na+ current (INa) (Rattus norvegicus, UniProt P15389); assay: Na+ current (INa) in rat ventricular myocytes, whole-cell voltage clamp; type: cell-based; set-up: endogenous in cells; host or cells: freshly isolated rat (Sprague-Dawley) left ventricular myocytes
Excerpt: (§1) Statistical significance was accepted for p value <0.05.
As sodium current (INa) in ventricular myocytes is so fast and large that membrane potential is prone to escape from the command voltage, it is necessary to reduce INa for a quantitative analysis. For this purpose, small ventricular myocytes isolated from young (3-weeks-old) rats were used, and currents recorded in a modified Cs^+-based low Na^+ bath solution (Yuill et al., 2000) which contained (in mM): 130 CsCl, 10 NaCl, 2.5 MgCl2, 0.5 CaCl2, 20 HEPES, 11 glucose, in experiments shown in FIG. 5. It was reported that the kinetics of INa in the standard solution (145 mM Na^+) and in Cs-based solution (10 mM Na^+) were similar.
To examine the effect of dmLSB on inward currents, a Cs^+-rich pipette solution containing 10 mM EGTA was used. To distinguish L-type Ca^2+ currents (ICa,L) from Na^+ currents (INa), a two-step pulse protocol was used (inset of FIG. 4A). […] Although the peak amplitude of INa was unaffected by dmLSB, significant broadening of inactivation phase was observed.
To avoid the problem of voltage escape and to investigate the effects of dmLSB on INa in a quantitative manner, INa was recorded in low external [Na^+] (10 mM). It is well known that the steady-state inactivation shifted spontaneously during whole-cell mode recording. To activate INa from the potential at which inactivation is fully recovered, depolarising test pulses were applied following a 500 ms pre-pulse to −120 mV. To eliminate the contamination of ICa,L and to isolate pure INa, current response to the same test pulse from holding potential (Vh) of −40 mV, which was regarded as ICa,L, was subtracted from that from Vh of −120 mV.
Pre-pulses of 500 ms duration at variable potentials (from −150 to −15 mV in 15 mV steps) preceded a 50 ms test pulse to −20 mV. The superimposed current responses to the test pulse (−20 mV) are shown in FIG. 6A (left, control; right, 20 μM dmLSB). […] The peak amplitudes of INa are plotted against pre-pulse voltages in FIG. 6B. […] The voltages for half inactivation were −75.7±0.61 mV (n=28) in control and −77.8±1.05 mV (n=32) in the presence of dmLSB (t-test, p>0.05).
Since dmLSB specifically affected the slow phase of inactivation, the difference current represented the slow inactivating INa (ISlow) induced by dmLSB. To quantify the magnitude of the effect of dmLSB on INa, the relative amplitude of ISlow to the peak INa was plotted.
Since dmLSB is lipophilic, it is possible that it permeates the plasma membrane and binds to intracellular receptors or to Na channel protein itself. It is not clear whether its effects were mediated via a cell surface binding site, an intracellular site, or both. To test this possibility, a ventricular myocyte was perfused intracellularly with the patch pipette solution containing 20 μM dmLSB, and INa was monitored while patch pipette solution diffused-in. Meanwhile, the series resistance (RS) was kept below 7 MΩ. As soon as the whole-cell patch was established, INa was recorded at a test potential of −20 mV, and this current trace was subtracted from subsequent INa records. The amplitudes of the subtracted currents were plotted as a function of whole-cell recording time (WCR time; FIG. 8A). […] No change in the inactivation kinetics of INa was observed until dmLSB was applied externally. When 5 μM dmLSB was bath-applied at ca 13 min of WCR time to the same cell, ISlow appeared, indicative of the dmLSB effect.

[3] = tested on: inward rectifier K+ currents and delayed rectifier K+ currents; assay: K+ currents in rat ventricular myocytes, voltage clamp with K+-rich pipette solution; type: cell-based; details: 10 μM dmLSB; I950ms
Protocol: as §1
The K-rich pipette solution containing (in mM): 90 K-aspartate, 30 KCl, 2 MgCl2, 5 Mg-ATP, 10 HEPES, 5 K-EGTA, 5 diTris-creatine phosphate, 2.5 Na2-creatine phosphate was used. Cs-aspartate internal solution contained (in mM): 90 Cs-aspartate, 20 CsCl, 2 MgCl2, 5 Mg-ATP, 10 HEPES, 2.5 Na2-creatine phosphate, 10 tetraethyl-ammonium chloride (TEA-Cl), 5 Cs-EGTA with pH adjusted to 7.3 using CsOH. When Cs-aspartate internal solution was used in combination with normal Tyrode (NT) bathing solution, the holding current level was inward at −80 mV, probably due to K^+ influx via inward rectifier K channels. To prevent this inward holding current, KCl in the NT solution was substituted with equimolar CsCl.
To elucidate the mechanism underlying APD change by dmLSB, voltage-clamp experiments were performed and the effects of dmLSB on the ionic currents in rat ventricular myocytes were investigated. Membrane currents were recorded in a voltage clamp mode using a patch pipette containing a K^+-rich (140 mM) internal solution. […]
However, initial amplitudes measured at 20 ms (I20ms) in the presence of dmLSB differed from those measured under control conditions, and the I-V relationship deviated inwardly by dmLSB. […]

[4] = mean value, during dmLSB superfusion, n=7

Sequence of L-type Ca2+ current (ICa,L) (P54290 945-1091, other chains not shown): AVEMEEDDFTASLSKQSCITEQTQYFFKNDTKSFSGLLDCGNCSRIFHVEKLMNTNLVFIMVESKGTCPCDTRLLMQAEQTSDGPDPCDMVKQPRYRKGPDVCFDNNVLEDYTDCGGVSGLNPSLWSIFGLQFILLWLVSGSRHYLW
Sequence of L-type Ca2+ current (ICa,L) (P22002 whole entry, other chains not shown): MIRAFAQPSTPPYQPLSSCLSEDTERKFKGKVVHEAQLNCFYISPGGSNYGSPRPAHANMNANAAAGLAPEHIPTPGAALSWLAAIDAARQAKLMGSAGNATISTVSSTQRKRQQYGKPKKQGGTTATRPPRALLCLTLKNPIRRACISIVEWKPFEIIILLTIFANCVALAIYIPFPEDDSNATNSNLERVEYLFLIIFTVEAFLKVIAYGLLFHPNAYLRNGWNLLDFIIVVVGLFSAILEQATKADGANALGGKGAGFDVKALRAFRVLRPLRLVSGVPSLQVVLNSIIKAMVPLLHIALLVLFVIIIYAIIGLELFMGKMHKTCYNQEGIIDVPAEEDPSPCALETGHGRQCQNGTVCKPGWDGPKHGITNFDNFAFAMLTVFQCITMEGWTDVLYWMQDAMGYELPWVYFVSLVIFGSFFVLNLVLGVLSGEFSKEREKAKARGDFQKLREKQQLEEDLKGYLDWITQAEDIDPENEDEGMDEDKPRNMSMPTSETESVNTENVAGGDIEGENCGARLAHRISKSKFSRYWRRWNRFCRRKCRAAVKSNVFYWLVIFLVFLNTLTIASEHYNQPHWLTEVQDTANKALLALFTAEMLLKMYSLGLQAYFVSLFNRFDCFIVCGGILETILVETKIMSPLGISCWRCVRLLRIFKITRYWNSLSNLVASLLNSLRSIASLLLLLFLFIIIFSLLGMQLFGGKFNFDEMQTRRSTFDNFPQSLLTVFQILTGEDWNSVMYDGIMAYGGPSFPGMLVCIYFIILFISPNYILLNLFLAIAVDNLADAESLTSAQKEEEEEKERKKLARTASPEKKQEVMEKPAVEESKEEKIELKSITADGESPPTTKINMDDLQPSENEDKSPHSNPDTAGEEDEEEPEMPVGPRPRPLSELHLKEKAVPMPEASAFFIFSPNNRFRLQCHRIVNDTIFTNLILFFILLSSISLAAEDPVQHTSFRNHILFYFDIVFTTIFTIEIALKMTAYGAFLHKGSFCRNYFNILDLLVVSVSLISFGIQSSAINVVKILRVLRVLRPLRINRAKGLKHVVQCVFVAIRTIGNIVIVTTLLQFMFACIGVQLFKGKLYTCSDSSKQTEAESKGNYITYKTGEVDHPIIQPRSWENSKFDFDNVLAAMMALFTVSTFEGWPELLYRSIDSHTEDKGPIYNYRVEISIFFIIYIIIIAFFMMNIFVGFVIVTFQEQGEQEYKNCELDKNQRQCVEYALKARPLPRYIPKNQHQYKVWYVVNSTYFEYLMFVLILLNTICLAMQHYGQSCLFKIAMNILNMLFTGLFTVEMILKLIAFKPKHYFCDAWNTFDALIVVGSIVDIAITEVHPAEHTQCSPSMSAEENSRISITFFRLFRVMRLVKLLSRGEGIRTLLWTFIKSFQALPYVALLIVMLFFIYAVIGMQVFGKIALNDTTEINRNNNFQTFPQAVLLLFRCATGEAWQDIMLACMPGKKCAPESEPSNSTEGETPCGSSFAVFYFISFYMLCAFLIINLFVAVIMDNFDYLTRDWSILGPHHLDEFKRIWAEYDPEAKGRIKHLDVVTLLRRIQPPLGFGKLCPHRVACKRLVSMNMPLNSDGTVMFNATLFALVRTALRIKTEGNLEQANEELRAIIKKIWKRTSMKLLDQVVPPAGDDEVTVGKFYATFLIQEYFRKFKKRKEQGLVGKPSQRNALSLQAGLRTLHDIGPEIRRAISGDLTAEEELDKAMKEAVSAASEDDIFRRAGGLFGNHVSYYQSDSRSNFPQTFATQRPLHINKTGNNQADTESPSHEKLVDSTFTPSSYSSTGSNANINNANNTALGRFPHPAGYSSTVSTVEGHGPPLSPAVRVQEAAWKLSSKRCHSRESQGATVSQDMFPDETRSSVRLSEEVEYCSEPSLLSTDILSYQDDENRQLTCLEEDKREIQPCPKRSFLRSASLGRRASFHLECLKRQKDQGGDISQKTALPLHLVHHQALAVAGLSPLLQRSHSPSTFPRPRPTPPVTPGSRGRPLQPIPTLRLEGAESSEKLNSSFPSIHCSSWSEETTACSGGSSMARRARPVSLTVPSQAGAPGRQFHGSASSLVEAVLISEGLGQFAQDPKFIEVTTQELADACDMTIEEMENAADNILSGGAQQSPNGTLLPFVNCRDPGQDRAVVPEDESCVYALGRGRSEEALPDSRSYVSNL
Sequence of L-type Ca2+ current (ICa,L) (P54290 25-944, other chains not shown): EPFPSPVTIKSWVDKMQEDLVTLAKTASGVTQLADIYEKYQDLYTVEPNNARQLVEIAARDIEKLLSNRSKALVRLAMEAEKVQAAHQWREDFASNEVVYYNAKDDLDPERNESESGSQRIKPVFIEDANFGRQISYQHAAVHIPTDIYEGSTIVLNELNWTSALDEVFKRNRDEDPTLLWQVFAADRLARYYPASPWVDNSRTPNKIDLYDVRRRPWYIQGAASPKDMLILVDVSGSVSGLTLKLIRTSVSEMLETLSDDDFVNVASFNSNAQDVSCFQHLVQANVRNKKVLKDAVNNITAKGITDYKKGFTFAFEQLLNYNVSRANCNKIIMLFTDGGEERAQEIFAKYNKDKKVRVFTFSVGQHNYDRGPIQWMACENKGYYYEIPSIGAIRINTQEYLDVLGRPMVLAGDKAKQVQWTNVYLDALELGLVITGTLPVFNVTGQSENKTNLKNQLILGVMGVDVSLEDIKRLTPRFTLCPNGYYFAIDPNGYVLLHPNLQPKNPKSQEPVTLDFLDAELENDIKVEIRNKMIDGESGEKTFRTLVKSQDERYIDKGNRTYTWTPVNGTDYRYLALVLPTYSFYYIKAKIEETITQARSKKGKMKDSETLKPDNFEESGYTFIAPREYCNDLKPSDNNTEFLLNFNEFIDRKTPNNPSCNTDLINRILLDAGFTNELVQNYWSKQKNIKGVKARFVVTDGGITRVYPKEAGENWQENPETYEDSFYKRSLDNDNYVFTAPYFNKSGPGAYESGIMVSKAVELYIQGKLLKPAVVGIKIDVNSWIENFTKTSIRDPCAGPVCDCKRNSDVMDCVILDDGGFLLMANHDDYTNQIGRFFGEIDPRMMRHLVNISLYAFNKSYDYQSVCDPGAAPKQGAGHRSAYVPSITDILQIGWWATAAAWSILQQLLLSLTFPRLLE

## N#Cc1cc2c(OCC(O)CN3CCN(C(c4ccccc4)c4ccccc4)CC3)cccc2[nH]1 (stereo not shown) [DPI 201-106]
Cardiac INa
  persistent INa (literature): induce a persistent INa
L-type calcium current
  calcium current (literature): inhibit
[1]
  inward rectifier K+ current (literature): inhibit

## CC1(C)C(C(=O)OC(C#N)c2cccc(Oc3ccccc3)c2)C1(C)C (stereo not shown) [fenpropathrin]
Cardiac INa
  activation and inactivation curves of INa (literature): leftward shifts

## N#Cc1cc2c(OCC(O)COC3CN(C(c4ccccc4)c4ccccc4)C3)cccc2[nH]1 (stereo not shown) [BDF 9148]
Cardiac INa
  persistent INa (literature): induce a persistent INa
L-type calcium current
  calcium current (literature): inhibit
[1]
  inward rectifier K+ current (literature): inhibit

## O=C(/C=C/c1ccc(O)c2c1C(C(=O)OC(Cc1ccc(O)c(O)c1)C(=O)O)C(c1ccc(O)c(O)c1)O2)OC(Cc1ccc(O)c(O)c1)C(=O)O (stereo not shown) [LSB, lithospermate B, reference compound]
Rat ventricular myocytes
  electrophysiological effect: negligible electrophysiological effect; also recorded: no effect on cardiac action potential

## Cc1oc2ccccc2c1Cc1cc(I)c(OCC(=O)O)c(I)c1 [KB130015, 2-Methyl-3-(3,5-diiodo-4-carboxymethoxybenzyl)benzofuran]
Cardiac INa
  INa inactivation (literature): slowed INa inactivation
  persistent INa (literature): without developing persistent INa
L-type calcium current
  calcium current (literature): reduces ICa

## COC(=O)[C@@H](Cc1ccc(O)c(O)c1)OC(=O)/C=C/c1ccc(O)c2c1[C@H](C(=O)O[C@H](Cc1ccc(O)c(O)c1)C(=O)OC)[C@@H](c1ccc(O)c(O)c1)O2 [dmLSB, dimethyl lithospermate B]
[2]
  effect on Ca2+ currents (ICa,L): no noticeable effect; also recorded: hardly affected; also recorded: No significant difference
Na+ current (INa)
  INa inactivation kinetics: slowed the inactivation kinetics
  steady-state (s-s) inactivation of INa: not affected; also recorded: no effect on the steady-state inactivation
Na+ current (INa); 10 μM dmLSB
  peak amplitude of INa: unaffected; also recorded: decreased slightly
Na+ current (INa); 10 μM dmLSB, −20 mV
  time within which INa inactivation was completed: ≤ 50 ms
Na+ current (INa); 20 μM dmLSB in pipette solution, n=4
  effect of intracellular application on INa: essentially no effect on INa
Na+ current (INa); 20 μM dmLSB, n=32, control −75.7, no unit
  V1/2 of steady-state inactivation fit: −77.8
Na+ current (INa); 20 μM dmLSB, n=32, control −75.7±0.61 mV
  voltage for half inactivation: −77.8±1.05 mV
Na+ current (INa); 20 μM dmLSB, control 10.20
  k of steady-state inactivation fit: 9.99
Na+ current (INa); at −20 mV, 10 μM dmLSB, bi-exponential fit, n=4
  amplitude of the slow component (AS), of the peak INa: 22.1±1.02%
Na+ current (INa); bath application
  time to maximal effect at each concentration: ca. 150 seconds
Na+ current (INa); dose-response of ISlow relative to peak INa
  Hill coefficient: 1.02
Na+ current (INa); in the presence of 10 μM dmLSB, low [Na+] 10 mM, n=4, control −42.35±1.1
  mean voltage for half-maximal activation: −37.28±0.8
Na+ current (INa); test pulse −20 mV, Hill fit, read-out: EC50, relative amplitude of slow component (ISlow) to peak INa
  EC50: 21.1 µM and 20 µM
Na+ current (INa); to the depolarised (right) direction, 10 μM dmLSB
  shift of voltage-dependence of activation (activation curve): 5 mV
Na+ current (INa); wash-out
  reversibility of effect on INa: reversible; also recorded: completely reversed after the wash-out
[3]
  effect on K+ currents: no noticeable effect; also recorded: no significant difference
Rat ventricular myocytes; 20 μM dmLSB, control 58.8±12.1 ms, n=7
  Action potential duration (APD90): 202.3 ± 9.5 ms
Rat ventricular myocytes; during prolonged plateau phase of AP
  early after-depolarisation (EAD): no early after-depolarisation was observed; also recorded: not associated with the generation of EAD; also recorded: no EAD observed
Rat ventricular myocytes; isolated rat ventricular myocytes
  effect on AP duration (APD): increases the APD
Rat ventricular myocytes; [4]
  overshoot potential: 53.53±8.8 mV
  resting membrane potential (RMP): −68.46±2.6 mV
Rat ventricular myocytes; tested up to 100 μM
  concentration at which APD prolongation was maximal: 20 µM

Reference: patent publication US20060008541A1, “Sodium channel agonist” (BIZMEDIC CO., LTD., priority 2004, published 2006)
